Laboratory results from patent US4957902A, “Peptide inhibitors of wound contraction” (Board of Regents, the University of Texas System, priority 1988, dated 1990).

Tested on: Human skin fibroblasts on collagen-coated surfaces
Format: cell-based
Details: 0.5 mg/ml peptide; serum-free DMEM; 60 minutes
Method: The incubations contained peptides at the concentrations indicated and cell spreading was measured after 60 minute Method: Falcon 35 mm tissue culture dishes were coated with collagen (Vitrogen 100; 50 ug/ml in DMEM) for 15 minutes at 37° C. and counter-coated for 15 minutes with 1 mg/ml heat denatured bovine serum albumin. Human skin fibroblasts in DMEM with peptides added at the concentrations indicated were incubated on the substrata for 60 minutes at 37°. The end of the incubations, the cells were fixed and projected cell surface areas were measured by superimposing the microscopic field on the digitizing tablet of a Zidas image analyzer. Data presented are averages±95% confidence limits based on measurement of 50-100 cells. See reference 21 for complete details.

N=C(N)NCCC[C@H](NC(=O)CN)C(=O)NCC(=O)N[C@@H](CC(=O)O)C(=O)N[C@@H](CO)C(=O)N1CCC[C@H]1C(=O)O [GRGDSP, Gly--Arg--Gly--Asp--Ser--Pro]
inhibition of cell spreading on collagen-coated surfaces: about 50%
